Test in all cases: NCI anticancer screen, dose series, 48 h
Test [1] has as its system ACHN renal.
For test [2], the system named is HCC-2998 colon.
Test [3] has as its system HCT-116 colon.
Test [4] has as its system HCT-15 colon.
The test system of test [5] is LOX IMVI melanoma.
Test [6] has as its system OVCAR-8 ovarian.
Test [7] has as its system SF-539 CNS.
The test system of test [8] is SK-OV-3 ovarian.
In test [9] the test system is SW-620 colon.
For test [10], the system named is UACC-62 melanoma.

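Test compounds were applied to cells in 96-well plates for 48 hours at 5 doses. Here, GI50 denotes the concentration required for 50% inhibition of growth. TGI: total growth inhibition.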

On to `Cc1ccccc1C1N=C2Oc3ccccc3C=C2C(=O)N1` (stereo not given), for which the GI50 is 2.2 µM in test [1]; 4.69 µM in test [2]; 6.37 µM in [3]; 2.05 µM in test [4]; 30.5 µM in test [5]; 10.9 µM in [6]. The GI50 in test [7] is 1.75 µM; in [8] it was 0.66 µM; in test [9], 4.74 µM; in test [10], 1.48 µM. The TGI was more than 100 µM in test [1]; more than 58.7 µM in [2]; more than 100 µM in test [3]; more than 100 µM in test [4]; more than 100 µM in test [5]; more than 100 µM in test [6]. Further, the TGI in test [7] is 6.88 µM; in test [8], more than 100 µM; in [9], more than 100 µM; in [10], more than 100 µM.

Regarding `OC1(c2ccccc2)c2ccccc2N(c2ccccc2)c2ccc(Cl)cc21` (stereo not given), the GI50 in test [1] is 0.367 µM; in test [2] it was 0.258 µM; in test [3], 0.234 µM; in [4] it was 0.424 µM; in [5] it was 0.179 µM; in test [6], 0.287 µM. Also, the GI50 in test [7] was 0.236 µM; in test [8] it was 0.608 µM; in [9], 0.197 µM; in [10], 0.195 µM. Also, the TGI in test [1] was found to be 1.37 µM; in test [2], 0.795 µM; in test [3], 0.602 µM; in test [4] it was 1.86 µM; in test [5], 0.348 µM; in [6], 1.25 µM. For the same compound, the TGI is 0.683 µM in [7], 1.39 µM in [8], 0.491 µM in test [9] and 0.452 µM in [10].

Regarding `FC(F)(F)c1ccc(-c2cnc(-c3nn[nH]n3)nc2NC2CCCCCC2)cc1`, the GI50 in [1], in [2], in test [3], in [4], in test [5] and in [6] was more than 10 µM throughout. Further, the GI50 in test [7], in test [8], in [9] and in test [10] was more than 10 µM each time. The TGI in [1], in [2], in test [3], in [4], in [5] and in test [6] was more than 10 µM throughout. In addition, the TGI in [7], in test [8], in test [9] and in test [10] was more than 10 µM throughout.

Regarding `C/C=C/C(C/C=C(\C)CO[Si](C)(C)C(C)(C)C)O[Si](C)(C)C(C)(C)C` (stereo not given), the TGI in test [1], in [2], in test [3], in test [4], in [5] and in test [6] was more than 100 µM each time. The TGI in test [7], in [8], in [9] and in test [10] was more than 100 µM throughout.

As to `CNC(=S)N/N=C/CSC/C=N/NC(=S)NC`, the GI50 in test [1] was more than 100 µM; in test [2], more than 100 µM; in test [3] it was 8.33 µM; in [4], 34.5 µM; in test [5], more than 60.7 µM; in test [6], more than 100 µM. Besides, the GI50 in [7] was more than 100 µM; in [8] it was more than 100 µM; in test [9], 41.1 µM; in [10], more than 100 µM. In addition, the TGI in test [1], in [2], in test [3], in test [4], in [5] and in test [6] was more than 100 µM each time. Further, the TGI in test [7], in test [8], in test [9] and in test [10] was more than 100 µM in each case.

Consider `COc1ncc(-c2ccc3nc(N)n(-c4ccccc4C(F)(F)F)c(=O)c3c2)cc1S(=O)(=O)Nc1ccc(F)cc1F`, for which the GI50 was 5.77 µM in [1]; 1.74 µM in test [2]; 1.7 µM in test [3]; 0.758 µM in test [4]; 0.224 µM in test [5]; 3.55 µM in test [6]. Also, the GI50 is 1.22 µM in test [7], 4.85 µM in [8], 1.84 µM in [9] and 3.06 µM in [10]. Besides, the TGI in test [1] was more than 100 µM; in test [2], 13.7 µM; in test [3] it was 15.9 µM; in test [4], 6.96 µM; in [5], 0.761 µM; in [6] it was more than 100 µM. For the same compound, the TGI is 20.4 µM in [7], more than 100 µM in test [8], 20 µM in [9] and 9.59 µM in test [10].

Consider `CCC[CH2][Sn]1([CH2]CCC)[O]C(=O)c2cccnc2[S]1`, for which the GI50 is 3.51 µM in test [1]; 2.39 µM in test [2]; 5.56 µM in [3]; 2.21 µM in test [4]; 1.76 µM in [5]; 4.04 µM in test [6]. Further, the GI50 is 3.17 µM in [7], 16.9 µM in test [8], 1.88 µM in test [9] and 1.87 µM in test [10]. For the same compound, the TGI in test [1] was determined as 11.7 µM; in test [2] it was 6.15 µM; in [3], 17.9 µM; in [4], 4.98 µM; in [5] it was 3.6 µM; in [6] it was 14.5 µM. Also, the TGI in [7] stood at 8.39 µM; in test [8], 31.4 µM; in test [9] it was 4.31 µM; in test [10], 5.53 µM.

The record behind these values is PubChem BioAssay (NCI).
